One data set has as its target COX-2 (Mus musculus (Mouse), UniProt Q05769). Description: Evaluation of COX-2 activity: PGE2 production in LPS-stimulated J774 cells. The format is cell-based, murine. The conditions noted are these: J774 cells stimulated 24 hours with LPS 10 μg/mL; PGE2 by radio-immunological assay; read-out: Cyclooxygenase inhibition COX-2 IC50. On the procedure: The murine monocyte/macrophage cell line J774 is grown in Dulbecco's modified Eagle's medium (DMEM), enriched with glutamine (2 mM), HEPES (25 mM), penicillin (100 u/mL), streptomycin (100 μg/mL), 10% of fetal bovine serum (FBS) and 1.2% of sodium pyruvate. […] Just before the experiments, the culture medium is replaced with fresh medium without FBS to avoid interference during the radio-immunological phase and the cells are stimulated as described below.
The supernatants are collected for evaluating, by means of radio-immunological assays, the amount of PGE2 produced.
In each group of experiments, wells were used in triplicate for the different treatment conditions. […] The data were evaluated using the sigmoidal dose-response equation (variable slope) (GraphPad software). IC50 and the 95% precision intervals were calculated with the program GraphPad Instat (GraphPad software).

Data set [1] has as its system isolated rings of thoracic aorta. Kind of data set: Evaluation of release of NO: vasorelaxing activity on endothelium-denuded aortic rings contracted with KCl. More on the design: species or system rat. Particulars: Rattus norvegicus; relative to contractile tone induced by 20 mM KCl; 1 nM-10 μM; read-out: NO release properties Emax (maximum vasorelaxing effect). Here is the method: The activity of the compounds was evaluated on isolated rings of thoracic aorta of normotensive male Wistar rats (250-350 g). After light anaesthesia with ether, the rats were sacrificed by cervical dislocation and exsanguination. The aortas were immediately excised, extraneous tissues were removed and the endothelial layer was removed by gently rubbing the surface with a hypodermic needle. Rings of aorta with a width of 5 mm were suspended, with a preload of 2 g, in 20-ml organ baths, containing a solution of “Tyrode” (composition of the saline solution in mM: NaCl 136.8; KCl 2.95; CaCl2 1.80; MgSO4 1.05; NaH2PO4 0.41; NaHCO3 11.9; glucose 5.5), thermostatically controlled at 37° C. and kept in an atmosphere of O2 (95%) and CO2 (5%). […] were recorded by means of an isometric transducer (FTO3 Erba), connected to a microdynamometer (Buxco Electronics).
60 minutes after preparation, removal of the endothelium was confirmed by acetylcholine (ACH) (10 μM) treatment of the vascular rings pre-contracted with KCl (20 mM). Relaxation of less than 10% of the contraction induced by KCl was considered as representative of acceptable removal of the endothelial layer, whereas organs displaying relaxation ≧10% were discarded. 40 minutes after confirmation of complete removal of the endothelium, the aortas were contracted by treatment with a single dose of KCl (20 mM) and after the contraction reached a stable plateau, increasing cumulative concentrations (with progressive increments of 3 times) of the test compounds (1 nM-10 μM) were added. It was found from preliminary experiments that the contraction induced by KCl (20 mM) remained stable in a tonic state for at least 40 minutes. The same experiments were performed in the presence of a well-known inhibitor of guanylate cyclase: ODQ 1 μM, which was incubated in aorta preparations after confirmation of removal of the endothelium.
Analysis of the results. The vasorelaxing activity was evaluated as a percentage (%) relative to the contractile tone induced by 20 mM KCl. The pharmacodynamic efficacy parameter (Emax) corresponds to the maximum vasorelaxing effect induced by the molecule tested, expressed as percentage relative to the contractile tone induced by 20 mM KCl. When the limit concentration of 10 μM (the highest concentration administered) of the test compounds has not reached the maximum effect, the efficacy parameter (Emax) corresponds to the vasorelaxing effect induced by the limit concentration (expressed as percentage relative to the contractile tone induced by 20 mM KCl). The pharmacodynamic parameter of potency of the compounds was expressed as pIC50 calculated as the negative logarithm of the molar concentration of test compound that reduces the contractile tone induced by 20 mM KCl by half. […] The parameters of efficacy and potency were expressed as mean±standard error, for 5-10 experiments. The experimental data were analysed by the program GraphPad Prism 3.0.

Structures can show the parent of a compound that is named as a salt.

The text below walks through data of patent US9162979B2, “1,5-Diary1-2-alkylpyrrole-3-substituted nitro esters, selective COX-2 inhibitors and nitric oxide donors” (ROTTAPHARM BIOTECH S.R.L., priority 2010, dated 2015).

COX-2, sequence (Q05769 18-604): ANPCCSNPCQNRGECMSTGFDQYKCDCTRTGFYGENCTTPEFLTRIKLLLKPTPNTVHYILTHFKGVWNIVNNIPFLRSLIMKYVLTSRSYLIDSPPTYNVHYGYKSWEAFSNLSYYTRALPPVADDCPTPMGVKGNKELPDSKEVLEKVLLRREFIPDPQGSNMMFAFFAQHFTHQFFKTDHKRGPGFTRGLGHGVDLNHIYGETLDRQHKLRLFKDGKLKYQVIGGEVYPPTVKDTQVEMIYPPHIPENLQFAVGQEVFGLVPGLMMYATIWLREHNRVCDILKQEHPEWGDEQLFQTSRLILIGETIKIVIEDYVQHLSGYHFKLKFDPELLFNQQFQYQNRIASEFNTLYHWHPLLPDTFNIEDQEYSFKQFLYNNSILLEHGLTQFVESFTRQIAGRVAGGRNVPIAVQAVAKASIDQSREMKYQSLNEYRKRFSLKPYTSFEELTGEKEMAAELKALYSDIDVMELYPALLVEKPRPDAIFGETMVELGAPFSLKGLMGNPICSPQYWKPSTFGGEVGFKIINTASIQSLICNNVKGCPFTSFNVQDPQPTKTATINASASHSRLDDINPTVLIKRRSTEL

`Cc1c(CCOCCO[N+](=O)[O-])cc(-c2ccc(S(C)(=O)=O)cc2)n1-c1cccc(F)c1` (as salt: nitrate) [Example 38, 2-[2-[2-(1-(3-Fluorophenyl)-2-methyl-5-(4-methylsulphonylphenyl)-1H-pyrrol-3-yl]ethoxy]ethyl Nitrate] had a melting point of 94 to 97 °C. In turn, `Cc1c(CCOCCO[N+](=O)[O-])cc(-c2ccc(S(C)(=O)=O)cc2)n1-c1ccc(F)c(F)c1` (as salt: nitrate) [Example 39, 2-[2-[2-(1-(3,4-Difluorophenyl)-2-methyl-5-(4-methylsulphonylphenyl)-1H-pyrrol-3-yl]ethoxy]ethyl Nitrate] gave a melting point of 93 to 96 °C. Still for that read-out and setting: for `Cc1c(CCOCCCO[N+](=O)[O-])cc(-c2ccc(S(C)(=O)=O)cc2)n1-c1ccccc1` (as salt: nitrate) [Example 40, 3-[2-[2-(1-Phenyl-2-methyl-5-(4-methylsulphonylphenyl)-1H-pyrrol-3-yl)ethoxy]propyl Nitrate] the value was 131 to 133 °C; for `Cc1c(CCOCCCO[N+](=O)[O-])cc(-c2ccc(S(C)(=O)=O)cc2)n1-c1ccc(F)cc1` (as salt: nitrate) [Example 41, 3-[2-[2-(1-(4-Fluorophenyl)-2-methyl-5-(4-methylsulphonylphenyl)-1H-pyrrol-3-yl)]ethoxy]propyl Nitrate], 114 to 116 °C. Molecule `Cc1c(CCOCCCO[N+](=O)[O-])cc(-c2ccc(S(C)(=O)=O)cc2)n1-c1cccc(F)c1` (as salt: nitrate) [Example 42, 3-[2-(1-(3-Fluorophenyl)-2-methyl-5-(4-methylsulphonylphenyl)-1H-pyrrol-3-yl)ethoxy]propyl Nitrate] came in with a melting point of 111 to 113 °C. Same read-out and setting: the figure for `Cc1c(C(N)C(=O)OCCO)cc(-c2ccc(S(C)(=O)=O)cc2)n1-c1ccc(F)cc1` (racemic) [Example 16-II, (R,S)-2-(Hydroxy)ethyl-[2-amino-2-[1-(4-fluorophenyl)-2-methyl-5-(4-methylsulphonylphenyl)-pyrrol-3-yl]]-acetate] is 102 °C. Same read-out and setting: for `Cc1c(C(N)C(=O)OCCO)cc(-c2ccc(S(C)(=O)=O)cc2)n1-c1cccc(F)c1` (racemic) [Example 17-II, (R,S)-2-(Hydroxy)ethyl-[2-amino-2-[1-(3-fluorophenyl)-2-methyl-5-(4-methylsulphonylphenyl)-1H-pyrrol-3-yl]]-acetate] the value was 102 °C; for `Cc1c(C(N)C(=O)OCCCO[N+](=O)[O-])cc(-c2ccc(S(C)(=O)=O)cc2)n1-c1cccc(F)c1` (racemic) [Example 19, (R,S)-3-(Nitrooxy)propyl-[2-amino-2-[1-(3-fluorophenyl)-2-methyl-5-(4-methylsulphonylphenyl)-1H-pyrrol-3-yl]]-acetate], 117 °C; for `Cc1c(C(N)C(=O)OCCCCO[N+](=O)[O-])cc(-c2ccc(S(C)(=O)=O)cc2)n1-c1cccc(F)c1` (racemic) [Example 21, (R,S)-4-(Nitrooxy)butyl-[2-amino-2-[1-(3-fluorophenyl)-2-methyl-5-(4-methylsulphonylphenyl)-1H-pyrrol-3-yl]]-acetate], 110 °C. Take `Cc1c(CC(=O)OCCO)cc(-c2ccc(S(C)(=O)=O)cc2)n1-c1ccc(F)cc1` [Example 2-II, 2-Hydroxyethyl-[2-(1-(4-fluorophenyl)-2-methyl-5-(4-methylsulphonylphenyl)-1H-pyrrol-3-yl)]acetate]: the melting point is 129 to 131 °C. In addition, on COX-2, the IC50 worked out at 0.089 µM. The molecule `Cc1c(CC(=O)OCCO)cc(-c2ccc(S(C)(=O)=O)cc2)n1-c1cccc(F)c1` [Example 3-II] displayed a melting point of 115 °C. The IC50 at COX-2 came to 0.085 µM.

For `COc1ccc(-n2c(-c3ccc(S(C)(=O)=O)cc3)cc(CC(=O)OCCO)c2C)cc1` [Example 4-II, 2-(Hydroxy)ethyl-[1-(4-methoxyphenyl)-2-methyl-5-(4-methylsulphonylphenyl)-1H-pyrrol-3-yl]-acetate], the melting point came out at 105 °C. For the same molecule, the IC50 at COX-2 is 1.1 µM. `Cc1c(CC(=O)OCCCO[N+](=O)[O-])cc(-c2ccc(S(C)(=O)=O)cc2)n1-c1ccccc1` [Example 6]: the melting point fell in the range of 116 to 118 °C. `Cc1c(CC(=O)OCCCO[N+](=O)[O-])cc(-c2ccc(S(C)(=O)=O)cc2)n1-c1ccc(F)cc1` [Example 7, 3-(Nitrooxy)propyl 2-[1-(4-fluorophenyl)-2-methyl-5-(4-methylsulphonylphenyl)-1H-pyrrol-3-yl]acetate] came in with a melting point of 126 to 128 °C. The molecule `Cc1c(CC(=O)OCCCCO[N+](=O)[O-])cc(-c2ccc(S(C)(=O)=O)cc2)n1-c1ccc(F)cc1` [Example 11, 4-(Nitrooxy)butyl-2-[1-(4-fluorophenyl)-2-methyl-5-(4-methylsulphonylphenyl)-1H-pyrrol-3-yl]acetate] displayed a melting point of 102 to 104 °C. In addition, the Emax in data set [1] was found to be 40 ± 8%.

Regarding `COc1ccc(-n2c(-c3ccc(S(C)(=O)=O)cc3)cc(CC(=O)OCCCCO[N+](=O)[O-])c2C)cc1` [Example 13, 4-(Nitrooxy)butyl-2-[1-(4-methoxyphenyl)-2-methyl-5-(4-methylsulphonylphenyl)-1H-pyrrol-3-yl]acetate], the melting point was determined as 109 °C. Moreover, the IC50 at COX-2 was 0.55 µM. `Cc1c(CC(=O)NCCO)cc(-c2ccc(S(C)(=O)=O)cc2)n1-c1ccc(F)cc1` [Example 23-II, N-[(2-Hydroxy)ethyl]-2-[1-(4-fluorophenyl)-2-methyl-5-(4-methylsulphonylphenyl)-1H-pyrrol-3-yl]acetamide] registered a melting point of 99 °C. Besides, the half-maximal inhibitory concentration (IC50) at COX-2 was found to be 0.3 µM.

Molecule `Cc1c(CC(=O)NCCCO[N+](=O)[O-])cc(-c2ccc(S(C)(=O)=O)cc2)n1-c1ccc(F)cc1` [Example 26, N-[(3-Nitroxy)propyl]-2-[1-(4-fluorophenyl)-2-methyl-5-(4-methylsulphonylphenyl)-1H-pyrrol-3-yl]acetamide] displayed a melting point of 127 °C. Take `Cc1c(CC(=O)NCCCO)cc(-c2ccc(S(C)(=O)=O)cc2)n1-c1ccc(F)cc1` [Example 26-II, N-[(3-Hydroxy)propyl]-2-[1-(4-fluorophenyl)-2-methyl-5-(4-methylsulphonylphenyl)-1H-pyrrol-3-yl]acetamide]: the melting point is 105 °C. Moreover, the IC50 at COX-2 amounted to 0.068 µM.

Regarding `Cc1c(CC(=O)NCCCO[N+](=O)[O-])cc(-c2ccc(S(C)(=O)=O)cc2)n1-c1cccc(F)c1` [Example 27, N-[(3-Nitroxy)propyl]-2-[1-(3-fluorophenyl)-2-methyl-5-(4-methylsulphonylphenyl)-1H-pyrrol-3-yl]acetamide], the melting point came to 125 °C. The molecule `Cc1c(CC(=O)NCCCO)cc(-c2ccc(S(C)(=O)=O)cc2)n1-c1cccc(F)c1` [Example 27-II, N-[(3-Hydroxy)propyl]-2-[1-(3-fluorophenyl)-2-methyl-5-(4-methylsulphonylphenyl)-1H-pyrrol-3-yl]acetamide] showed a melting point of 102 °C. The IC50 at COX-2 amounted to 0.014 µM. Turning to `Cc1c(CCOCCCO[N+](=O)[O-])cc(-c2ccc(S(C)(=O)=O)cc2)n1-c1ccccc1` [Example 40, 3-[2-[2-(1-Phenyl-2-methyl-5-(4-methylsulphonylphenyl)-1H-pyrrol-3-yl)ethoxy]propyl Nitrate], the IC50 on COX-2 was 0.015 µM. Moreover, the Emax in data set [1] was found to be 48.2 ± 0.5%.
